Measurements: patent publication US11931431B2, “PSMA-targeted radiopharmaceutical for diagnosing and treating prostate cancer” (FUTURECHEM CO., LTD, priority 2018, dated 2024)

Assays:
[1] = Measurement of lipophilicity (log P), n-octanol/PBS; format: physicochemical; conditions: mean of 3
Method: Each of the [^68Ga]1 compounds (1˜2 mci) synthesized in Example 14 was transferred into a vial, and the solvent was removed, to which 1 mL of n-octanol and 1 mL of PBS were added, and the lid was well closed, followed by mixing with a vortex for 1 minute. After the layers were separated, 0.1 mL was taken from each layer and the radiation dose was measured. The radiation dose was measured by repeating 3 times, and the mean value was obtained.

PSMA^+ PC-3 PIP tumors [2] = experiment: MicroPET/CT imaging of mice transplanted with prostate cancer cell lines; format: in vivo, nude mouse
Method: A tumor model was prepared by subcutaneously injecting PSMA^+ PC-3 PIP cells (a human prostate cancer cell line) to the right side of the nude mouse hind leg. Each of the ^68Ga-labeled compounds [^68Ga]1e, [^68Ga]1g, [^68Ga]1h and [^68Ga]1k was intravenously injected with 5.5 to 6.5 MBq (148-175 μCi/200 μL), and PET/CT images were obtained using small animal INVEON PET/CT (Siemens medical solutions, Knoxville, USA) for 60 minutes. After 150 minutes, 270 minutes, and 390 minutes, PET/CT images were also obtained for 30 minutes. The obtained PET/CT image results were quantitatively analyzed using Inveon™ Research Workplace (IRW).
FIGS. 1, 2, 3, and 4 are graphs showing the quantitative analysis results of MicorPET/CT images for [^68Ga]1e, [^68Ga]1g, [^68Ga]1h, and [^68Ga]1k in % injected dose (ID)/g, and summarized in Tables 3, 4, 5, and 6, respectively.

PSMA^+ PC-3 PIP tumors [3] = experiment: Biodistribution test with mice transplanted with prostate cancer cell lines (gamma counter); format: in vivo, nude mouse; conditions: 5 hours after injection
Method: After 270 minutes of [^68Ga]1e and [^68Ga]1g injection, microPET/CT images were obtained for 30 minutes, and then each organ (blood, muscle, fat, heart, lung, liver, spleen, stomach, intestine, kidney, bone and tumor) was extracted and the radioactivity thereof was measured using a gamma counter.

PSMA = PSMA (Homo sapiens, UniProt Q04609); conditions: cited from earlier work
Sequence of PSMA (Q04609 whole entry): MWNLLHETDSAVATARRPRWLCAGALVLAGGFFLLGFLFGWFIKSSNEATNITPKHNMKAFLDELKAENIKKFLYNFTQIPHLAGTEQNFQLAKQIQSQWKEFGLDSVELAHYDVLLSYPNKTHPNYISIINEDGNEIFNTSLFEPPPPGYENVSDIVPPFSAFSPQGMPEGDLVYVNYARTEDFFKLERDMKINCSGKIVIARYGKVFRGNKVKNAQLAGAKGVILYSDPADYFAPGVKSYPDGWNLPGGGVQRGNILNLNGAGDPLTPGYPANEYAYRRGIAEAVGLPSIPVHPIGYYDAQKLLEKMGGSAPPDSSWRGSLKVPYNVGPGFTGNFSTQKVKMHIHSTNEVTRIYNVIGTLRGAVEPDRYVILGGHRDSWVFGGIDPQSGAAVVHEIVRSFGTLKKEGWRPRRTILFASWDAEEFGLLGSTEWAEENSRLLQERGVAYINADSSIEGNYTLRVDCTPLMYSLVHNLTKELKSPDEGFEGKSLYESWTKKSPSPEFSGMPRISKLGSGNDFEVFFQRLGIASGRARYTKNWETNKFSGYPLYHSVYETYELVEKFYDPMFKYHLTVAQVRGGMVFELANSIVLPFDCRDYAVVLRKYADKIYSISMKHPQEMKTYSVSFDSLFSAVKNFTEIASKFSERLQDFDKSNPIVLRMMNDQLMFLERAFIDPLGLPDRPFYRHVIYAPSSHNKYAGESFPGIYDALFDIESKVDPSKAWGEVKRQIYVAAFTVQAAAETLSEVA

Cc1ccc(CCCC(=O)NCCCCC(NC(=O)CN2CCN3CCN4CCN(CC2)CC(=O)[O][68Ga]([O]C(=O)C3)[O]C(=O)C4)C(=O)NCCOCCOCC(=O)N(CCCCC(NC(=O)NC(CCC(=O)O)C(=O)O)C(=O)O)CC(=O)O)cc1 (stereo not shown) [[^68Ga]1g]
logP [1]: −2.42 | intake of mouse organ: Bladder (PSMA^+ PC-3 PIP tumors [2]; 10 min after injection): 2.28 ± 0.11 % ID/g | intake of mouse organ: Kidney (PSMA^+ PC-3 PIP tumors [2]; 10 min after injection): 16.40 ± 0.10 % ID/g | intake of mouse organ: Liver (PSMA^+ PC-3 PIP tumors [2]; 10 min after injection): 9.55 ± 2.22 % ID/g | intake of mouse organ: Muscle (PSMA^+ PC-3 PIP tumors [2]; 10 min after injection): 1.49 ± 1.64 % ID/g | intake of mouse organ: Tumor (PIP) (PSMA^+ PC-3 PIP tumors [2]; 10 min after injection): 2.18 ± 0.63 % ID/g | intake of mouse organ: Bladder (PSMA^+ PC-3 PIP tumors [2]; 20 min after injection): 6.98 ± 2.51 % ID/g | intake of mouse organ: Kidney (PSMA^+ PC-3 PIP tumors [2]; 20 min after injection): 19.80 ± 0.73 % ID/g | intake of mouse organ: Liver (PSMA^+ PC-3 PIP tumors [2]; 20 min after injection): 7.26 ± 1.06 % ID/g | intake of mouse organ: Muscle (PSMA^+ PC-3 PIP tumors [2]; 20 min after injection): 1.88 ± 2.00 % ID/g | intake of mouse organ: Tumor (PIP) (PSMA^+ PC-3 PIP tumors [2]; 20 min after injection): 4.42 ± 1.50 % ID/g | intake of mouse organ: Bladder (PSMA^+ PC-3 PIP tumors [2]; 30 min after injection): 13.51 ± 5.83 % ID/g | intake of mouse organ: Kidney (PSMA^+ PC-3 PIP tumors [2]; 30 min after injection): 21.18 ± 2.17 % ID/g | intake of mouse organ: Liver (PSMA^+ PC-3 PIP tumors [2]; 30 min after injection): 6.10 ± 0.50 % ID/g | intake of mouse organ: Muscle (PSMA^+ PC-3 PIP tumors [2]; 30 min after injection): 1.69 ± 1.78 % ID/g | intake of mouse organ: Tumor (PIP) (PSMA^+ PC-3 PIP tumors [2]; 30 min after injection): 5.43 ± 1.94 % ID/g | intake of mouse organ: Bladder (PSMA^+ PC-3 PIP tumors [2]; 40 min after injection): 18.89 ± 8.84 % ID/g | intake of mouse organ: Kidney (PSMA^+ PC-3 PIP tumors [2]; 40 min after injection): 22.74 ± 3.48 % ID/g | intake of mouse organ: Liver (PSMA^+ PC-3 PIP tumors [2]; 40 min after injection): 5.38 ± 0.22 % ID/g | intake of mouse organ: Muscle (PSMA^+ PC-3 PIP tumors [2]; 40 min after injection): 1.61 ± 1.69 % ID/g | intake of mouse organ: Tumor (PIP) (PSMA^+ PC-3 PIP tumors [2]; 40 min after injection): 6.43 ± 2.32 % ID/g | intake of mouse organ: Bladder (PSMA^+ PC-3 PIP tumors [2]; 50 min after injection): 22.76 ± 10.86 % ID/g | intake of mouse organ: Kidney (PSMA^+ PC-3 PIP tumors [2]; 50 min after injection): 24.20 ± 4.60 % ID/g | intake of mouse organ: Liver (PSMA^+ PC-3 PIP tumors [2]; 50 min after injection): 4.75 ± 0.07 % ID/g | intake of mouse organ: Muscle (PSMA^+ PC-3 PIP tumors [2]; 50 min after injection): 1.54 ± 1.62 % ID/g | intake of mouse organ: Tumor (PIP) (PSMA^+ PC-3 PIP tumors [2]; 50 min after injection): 7.33 ± 2.76 % ID/g | intake of mouse organ: Bladder (PSMA^+ PC-3 PIP tumors [2]; 60 min after injection): 24.74 ± 11.23 % ID/g | intake of mouse organ: Kidney (PSMA^+ PC-3 PIP tumors [2]; 60 min after injection): 25.78 ± 4.72 % ID/g | intake of mouse organ: Liver (PSMA^+ PC-3 PIP tumors [2]; 60 min after injection): 4.41 ± 0.03 % ID/g | intake of mouse organ: Muscle (PSMA^+ PC-3 PIP tumors [2]; 60 min after injection): 1.32 ± 1.33 % ID/g | intake of mouse organ: Tumor (PIP) (PSMA^+ PC-3 PIP tumors [2]; 60 min after injection): 8.29 ± 2.99 % ID/g | intake of mouse organ: Bladder (PSMA^+ PC-3 PIP tumors [2]; 150 min after injection): 42.3 ± 41.58 % ID/g | intake of mouse organ: Kidney (PSMA^+ PC-3 PIP tumors [2]; 150 min after injection): 15.75 ± 11.53 % ID/g | intake of mouse organ: Liver (PSMA^+ PC-3 PIP tumors [2]; 150 min after injection): 0.45 ± 0.11 % ID/g | intake of mouse organ: Muscle (PSMA^+ PC-3 PIP tumors [2]; 150 min after injection): 0.21 ± 0.03 % ID/g | intake of mouse organ: Tumor (PIP) (PSMA^+ PC-3 PIP tumors [2]; 150 min after injection): 11.4 ± 5.23 % ID/g | intake of mouse organ: Bladder (PSMA^+ PC-3 PIP tumors [2]; 270 min after injection): 12.05 ± 2.76 % ID/g | intake of mouse organ: Kidney (PSMA^+ PC-3 PIP tumors [2]; 270 min after injection): 12.45 ± 9.69 % ID/g | intake of mouse organ: Liver (PSMA^+ PC-3 PIP tumors [2]; 270 min after injection): 0.22 ± 0.01 % ID/g | intake of mouse organ: Muscle (PSMA^+ PC-3 PIP tumors [2]; 270 min after injection): 0.06 ± 0.02 % ID/g | intake of mouse organ: Tumor (PIP) (PSMA^+ PC-3 PIP tumors [2]; 270 min after injection): 13.00±4.95 % ID/g | tumor intake increase compared to [^68Ga]1e (PSMA^+ PC-3 PIP tumors [2]; 270 minutes): about 3 times | excretion, in words (PSMA^+ PC-3 PIP tumors [2]; MicroPET/CT): rapidly excreted out of the body | residence time in the blood, in words (PSMA^+ PC-3 PIP tumors [2]; MicroPET/CT): residence time in the blood was increased | tumor intake over time, in words (PSMA^+ PC-3 PIP tumors [2]; MicroPET/CT): tumor intake was increased over time | tumor intake rate, times higher than that of [^68Ga]1e (PSMA^+ PC-3 PIP tumors [3]): about 1.4 times | Radioactivity in mouse organ: Blood (PSMA^+ PC-3 PIP tumors [3]; gamma counter): 0.02 ± 0.03 % ID/g | Radioactivity in mouse organ: Bone (PSMA^+ PC-3 PIP tumors [3]; gamma counter): 0.01 ± 0.01 % ID/g | Radioactivity in mouse organ: Fat (PSMA^+ PC-3 PIP tumors [3]; gamma counter): 0.11 ± 0.15 % ID/g | Radioactivity in mouse organ: Heart (PSMA^+ PC-3 PIP tumors [3]; gamma counter): 0.02 ± 0.01 % ID/g | Radioactivity in mouse organ: Intestine (PSMA^+ PC-3 PIP tumors [3]; gamma counter): 0.09 ± 0.08 % ID/g | Radioactivity in mouse organ: Kidney (PSMA^+ PC-3 PIP tumors [3]; gamma counter): 9.15 ± 11.26 % ID/g | Radioactivity in mouse organ: Liver (PSMA^+ PC-3 PIP tumors [3]; gamma counter): 0.03 ± 0.01 % ID/g | Radioactivity in mouse organ: Lung (PSMA^+ PC-3 PIP tumors [3]; gamma counter): 0.07 ± 0.07 % ID/g | Radioactivity in mouse organ: Muscle (PSMA^+ PC-3 PIP tumors [3]; gamma counter): 0.01 ± 0.00 % ID/g | Radioactivity in mouse organ: Spleen (PSMA^+ PC-3 PIP tumors [3]; gamma counter): 0.20 ± 0.27 % ID/g | Radioactivity in mouse organ: Stomach (PSMA^+ PC-3 PIP tumors [3]; gamma counter): 0.02 ± 0.02 % ID/g

O=C(O)CC[C@H](NC(=O)N[C@@H](CCCCNC(=O)Nc1ccc([125I])cc1)C(=O)O)C(=O)O [[^125I]30]
Kd (PSMA): 0.13 nM
